Measured values taken from US20030228279A1, “Compositions and methods for viral delivery” (Corixa Corporation, priority 2001, published 2003).
Entries after “also recorded” stand apart in the source; their conditions may differ. Read-outs that look alike come from different tables or passages of the source.

Columns and labels:
[1] = cited from earlier work
[2] = in vivo; cited from earlier work
[3] = tested on: sheep red blood cells; settings: cited from earlier work
[4] = tested on: red blood cells; settings: cited from earlier work
[5] = Aqueous solubility; assay type: physicochemical; settings: at physiologic pH
Description: Aqueous solubility is a desirable characteristic of adjuvant-active saponins and aids in vaccine formulation and efficacy (Kensil, 1996). Unlike oil-based emulsions and mineral salt adjuvants which can denature antigens and prevent protective effects, saponins are non-denaturing adjuvants due to their high aqueous solubility. Their high water solubility also obviates extensive homogenation procedures required for emulsion-type adjuvants, permitting simple mixing of aqueous adjuvant and antigen solutions prior to immunization. […] Water-soluble O-glycosides of simple hydroxybenzaldehydes (e.g., helicin (31)) not only occur in nature but readily form stable Schiff-base derivatives as well (see, The Merck Index, 12th ed.; Merck & Co., Inc.: Whitehouse Station, N.J., 1996) The synthetically simpler succinate (VI) is also useful since succinic acid constitutes a simple 4-carbon isostere for the glucuronic acid moiety and has been used to impart triterpenes with aqueous solubility (see, Gottfried and Baxendale, U.S. Pat. No. 3,070,623, 1962).

Compound | critical micellar concentration in phosphate buffered saline [1] | critical micellar concentration in water [1] | adjuvant activity [2] | concentrations causing hemolysis of sheep red blood cells ([3]; sheep red blood cells) | hemolytic activity towards red blood cells [4] | concentrations causing no detectable hemolysis of sheep red blood cells [3] | concentrations causing hemolysis of sheep red blood cells [3] | aqueous solubility [5]
QS-21 | ~0.02 % (w/v) | about 0.03 % (w/v) | potent adjuvants | ≥ 25000 ng/mL | – | – | – | –
C[C@@H]1CC[C@@]2(OC1)O[C@H]1[C@@H](O)[C@H]3[C@@H]4CC[C@H]5C[C@@H](O[C@@H]6O[C@H](CO)[C@H](O[C@@H]7O[C@H](CO)[C@@H](O)[C@H](O[C@@H]8OC[C@@H](O)[C@H](O)[C@H]8O)[C@H]7O[C@@H]7O[C@H](CO)[C@H](O)[C@H](O[C@@H]8O[C@H](CO)[C@@H](O)[C@H](O)[C@H]8O)[C@H]7O)[C@H](O)[C@H]6O)[C@H](O)C[C@]5(C)[C@H]4CC[C@]3(C)[C@H]1[C@@H]2C [digitonin] | – | – | adjuvant-inactive | – | highly hemolytic | – | – | –
QS-7 | ~0.07% | approximately 0.06% | potent adjuvants; also recorded: potent inducer of cell-mediated and humoral responses | – | non-hemolytic | ≤ 200000 ng/mL | – | –
QS-17 | 0.03 % (w/v) | 0.06 % (w/v) | potent adjuvants | – | – | – | ≥ 25000 ng/mL | –
O=Cc1cc(OCc2ccc(C(=O)O)cc2)ccc1O [isotucaresol] | – | – | – | – | – | – | – | sparingly soluble
QS-18 | 0.02 % (w/v) | 0.04 % (w/v) | potent adjuvants | – | – | – | ≥ 25000 ng/mL | –
